Values after ≈ are worked out from the molar mass of the structure shown.
How the values were obtained:
S. cerevisiae = experiment: MIC, microbroth dilution; format: cell-based, Saccharomyces cerevisiae
[1] = tested on: Methicillin resistant Staphylococcus aureus; experiment: MIC, microbroth dilution; format: cell-based; conditions: S. aureus (MRSA)
P. chrysogenum = experiment: MIC, dose-dependent solid media assay; format: cell-based, Penicillium chrysogenum
B. cereus = experiment: MIC, microbroth dilution; format: cell-based, Bacillus cereus
P. aeruginosa = experiment: MIC, microbroth dilution; format: cell-based, Pseudomonas aeruginosa
C. albicans = experiment: MIC, microbroth dilution; format: cell-based, Candida albicans
A. flavus = experiment: MIC, dose-dependent solid media assay; format: cell-based, Aspergillus flavus
E. coli = experiment: MIC, microbroth dilution; format: cell-based, Escherichia coli
T. mentagrophytes = experiment: MIC, dose-dependent solid media assay; format: cell-based, Trichophyton mentagrophytes
[2] = Saccharomyces cerevisiae, value in parentheses
[3] = Staphylococcus aureus, value in parentheses
[4] = Penicillium chrysogenum, value in parentheses
[5] = Bacillus cereus, value in parentheses
[6] = Pseudomonas aeruginosa, value in parentheses
[7] = Candida albicans, value in parentheses
[8] = Aspergillus flavus, value in parentheses
[9] = Escherichia coli, value in parentheses
[10] = Trichophyton mentagrophytes, value in parentheses

SMILES	MIC (S. cerevisiae; Saccharomyces cerevisiae)	MIC (S. cerevisiae; [2])	MIC ([1]; Staphylococcus aureus)	MIC [1, 3]	MIC (P. chrysogenum; Penicillium chrysogenum)	MIC (P. chrysogenum; [4])	MIC (B. cereus; Bacillus cereus)	MIC (B. cereus; [5])	MIC (P. aeruginosa; Pseudomonas aeruginosa)	MIC (P. aeruginosa; [6])	MIC (C. albicans; Candida albicans)	MIC (C. albicans; [7])	MIC (A. flavus; Aspergillus flavus)	MIC (A. flavus; [8])	MIC (E. coli; Escherichia coli)	MIC (E. coli; [9])	MIC (T. mentagrophytes; Trichophyton mentagrophytes)	MIC (T. mentagrophytes; [10])	other results
OB1OCC=C1c1cccc(I)c1 [Compound 6l]	> 50 µg/mL	> 175 µM	> 50 µg/mL	> 175 µM	6.25 µg/mL	21.9 µM	> 50 µg/mL	> 175 µM	> 50 µg/mL	> 175 µM	> 50 µg/mL	> 175 µM	25 µg/mL	87.4 µM	> 50 µg/mL	> 175 µM	25 µg/mL	87.4 µM	–
OB1OCC=C1c1ccc(OC(F)(F)F)cc1 [Compound 6m]	29 ± 11 µg/mL	119 µM	> 50 µg/mL	> 205 µM	12.5 µg/mL	51.2 µM	> 50 µg/mL	> 205 µM	> 50 µg/mL	> 205 µM	> 50 µg/mL	> 205 µM	50 µg/mL	205 µM	> 50 µg/mL	> 205 µM	50 µg/mL	205 µM	–
COc1ccc(C2=CCOB2O)cc1 [Compound 6n]	> 50 µg/mL	> 263 µM	> 50 µg/mL	> 263 µM	> 50 µg/mL	> 263 µM	> 50 µg/mL	> 263 µM	> 50 µg/mL	> 263 µM	> 50 µg/mL	> 263 µM	> 50 µg/mL	> 263 µM	> 50 µg/mL	> 263 µM	> 50 µg/mL	> 263 µM	–
COc1cccc(C2=CCOB2O)c1 [Compound 6o]	50 µg/mL	263 µM	> 50 µg/mL	> 263 µM	50 µg/mL	263 µM	> 50 µg/mL	> 263 µM	> 50 µg/mL	> 263 µM	> 50 µg/mL	> 263 µM	> 50 µg/mL	> 263 µM	> 50 µg/mL	> 263 µM	> 50 µg/mL	> 263 µM	–
COc1ccccc1C1=CCOB1O [Compound 6p]	> 50 µg/mL	> 263 µM	> 50 µg/mL	> 263 µM	> 50 µg/mL	> 263 µM	> 50 µg/mL	> 263 µM	> 50 µg/mL	> 263 µM	> 50 µg/mL	> 263 µM	> 50 µg/mL	> 263 µM	> 50 µg/mL	> 263 µM	> 50 µg/mL	> 263 µM	–
Cc1ccccc1C1=CCOB1O [Compound 6v]	> 50 µg/mL	> 287 µM	> 50 µg/mL	> 287 µM	> 50 µg/mL	> 287 µM	> 50 µg/mL	> 287 µM	> 50 µg/mL	> 287 µM	> 50 µg/mL	> 287 µM	> 50 µg/mL	> 287 µM	> 50 µg/mL	> 287 µM	> 50 µg/mL	> 287 µM	–
OB1OCC=C1C1=CCCCC1 [Compound 6y]	21 ± 4 µg/mL	128 µM	> 50 µg/mL	> 305 µM	> 50 µg/mL	> 305 µM	> 50 µg/mL	> 305 µM	> 50 µg/mL	> 305 µM	> 50 µg/mL	> 305 µM	> 50 µg/mL	> 305 µM	> 50 µg/mL	> 305 µM	> 50 µg/mL	> 305 µM	–
C[C@@H]1C[C@@H]([C@H](O)CC2CC(=O)NC(=O)C2)C(=O)[C@@H](C)C1 [Cycloheximide, reference compound]	1.56 µg/mL	5.54 µM	> 50 µg/mL	> 178 µM	12.5 µg/mL	44.4 µM	> 50 µg/mL	> 178 µM	> 50 µg/mL	> 178 µM	> 50 µg/mL	> 178 µM	> 50 µg/mL	> 178 µM	> 50 µg/mL	> 178 µM	> 50 µg/mL	> 178 µM	–
C[C@@H]1[C@H](O)[C@@H](C)/C=C/C=C/CC/C=C/C=C/C=C/C=C/C(O[C@H]2O[C@H](C)[C@@H](O)[C@H](N)[C@@H]2O)CC2O[C@](O)(CC(O)C(O)CCC(O)CC(O)CC(O)CC(=O)O[C@H]1C)CC(O)C2C(=O)O (stereo partly drawn) [Nystatin, reference compound]	–	–	–	–	–	–	–	–	–	–	–	–	–	–	–	–	–	–	MIC SC (S. cerevisiae): 1.56 ± 0 µg/mL (≈ 1.68 µM); MIC (S. cerevisiae; value in parentheses): 1.68 µM; MIC SA [1]: > 50 µg/mL; MIC ([1]; value in parentheses): > 54.0 µM; MIC PC (P. chrysogenum): 1.56 ± 0 µg/mL (≈ 1.68 µM); MIC (P. chrysogenum; value in parentheses): 1.68 µM; MIC BC (B. cereus): > 50 µg/mL; MIC (B. cereus; value in parentheses): > 54.0 µM; MIC PA (P. aeruginosa): > 50 µg/mL; MIC (P. aeruginosa; value in parentheses): > 54.0 µM; MIC CA (C. albicans): 0.78 ± 0 µg/mL (≈ 0.842 µM); MIC (C. albicans; value in parentheses): 0.84 µM; MIC AF (A. flavus): 2.6 ± 0.5 µg/mL (≈ 2.81 µM); MIC (A. flavus; value in parentheses): 2.81 µM; MIC EC (E. coli): > 50 µg/mL; MIC (E. coli; value in parentheses): > 54.0 µM; MIC TM (T. mentagrophytes): 3.13 ± 0 µg/mL (≈ 3.38 µM); MIC (T. mentagrophytes; value in parentheses): 3.38 µM

From paper PMC10945556, “Design, Synthesis, and Antifungal Activity of 3-Substituted-2(5H)-Oxaboroles” (ACS Medicinal Chemistry Letters, 2024)
